Measurements as given in patent US8691576B2, “Regeneration and mass propagation of Jatropha curcas through somatic embryogenesis” (Joil (S) Pte Ltd., priority 2008, dated 2014).

Key:
Type in all cases: cell-based
[1] = tested on: Jatropha curcas somatic embryos (TISEs); test: Effect of GA3 on germination of somatic embryos; conditions: for Hypocotyl Extension % / Root Growth % / Viable Germination SE % / Hypocotyl Extension SE Count / Root Growth SE Count / Viable Germination SE Count: three weeks; for Hypocotyl Extension SE Count / Root Growth SE Count / Viable Germination SE Count: 30 explants;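 as to all read-outs here: groups of 20–30 TISEs per medium were moved onto each medium and scored for germination traits, with GA3-free media as the comparison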
[2] = tested on: Jatropha curcas embryogenic calli; test: Embryogenic liquid suspension culture; conditions: KNO3 increased to 1.9 g/l to 3.8 g/l
Experimental: FIGS. 5A-5D show embryogenic liquid suspension culture. About 50 mg embryogenic calli produced in solid DGA medium were inoculated in 20 ml modified DGA liquid media. Embryos larger than 2 mm were removed before inoculation. Subculture was done every two weeks. Photos were taken after 2 subcultures. FIG. 5A: 20 g/l sucrose, 1 g/l glutamine, 0.5 g/l asparagine, no 2,4-D. FIG. 5B: 20 g/l sucrose, 1 g/l glutamine, 0.5 g/l asparagine, 0.2 g/1 2,4-D. FIG. 5C: 30 g/l sucrose, 1 g/l glutamine, 0.5 g/l asparagine, 0.2 g/1 2,4-D. FIG. 5D: 20 g/l sucrose, 1 g/l glutamine, 0.5 g/l asparagine, 1 g/1 2,4-D. Arrow indicates the non-embryogenic ball-shaped calli. Scale bar represents 1 cm.
Liquid cultures were performed in 65 mm plastic cylinder containers or 250 ml glass conical flasks that were placed in shakers set at 80 rpm, 28° C. constant temperature and 16-8 hours day-light cycles.
Effects 2,4-D and carbon source on establishment of somatic embryogenic liquid suspension culture was investigated. […] At sucrose level ranging from 10-30 g/l, continued culture lead to maturation of the somatic embryo with no new initiation of secondary embryos (FIG. 5A). The somatic embryos thus produced share good synchrony and are excellent materials for re-induction of TIISEs (Refer to Example 13). […] The suspension cultures were stable for months if large embryos were removed. Further, sucrose concentration needs to be reduced below about 20 g/l (compare FIGS. 5B and 5C).

[3] = tested on: Jatropha curcas somatic embryo explants; test: Re-initiation of somatic embryogenesis from matured somatic embryos on solid DGA and derivative media; conditions: for production of secondary somatic embryos and embryogenic calli: supplementation in solid DGA-type medium
Experimental: Somatic embryos were matured in 2,4-D-free liquid MS medium and hypocotyl-root apex tissues were excised from somatic embryos larger than 0.5 cm. Those smaller than 0.5 cm were cultured intact. The explants were cultured in various DGA or its derivative solid medium. […] 2,4-D and kinetin could be added as optional supplements (not shown).

[4] = tested on: Jatropha curcas immature embryo and endosperm explants; test: Effect of kinetin on TISE and TIISE formation; conditions: for TIISE (%) >5 SE / TIISE (%) >10 SE / TIISE (%) Total / TISE (%): 5 mg/l 2,4-D, 6 weeks, then DGA 4 weeks
Experimental: Developing fruits were surface-sterilized and dissected to yield 120 immature embryos that were shorter than 1.5 cm in length. After cutting into halves, the explants were cultured in media with a series of kinetin concentrations. On the 5th day, the endosperm tissues were separated from the embryos, further reduced into small pieces of about 0.25 cm^2 and transferred to the fresh medium with the same kinetin concentrations. After one subcultures (6 weeks in total), the calli were transferred to DGA medium and cultured for one month. Twenty immature embryos were used in each treatment. It was observed that TISEs were almost exclusively formed on endosperm tissues where the embryos had been detached after three's culture.

[5] = tested on: Jatropha curcas somatic embryos; test: Effect of abscisic acid in maturation media on germination; conditions: ABA 0-5 mg/l in DGA or EGA media or variants
Experimental: To further explore methods to improve germination, abscisic acid (ABA) between 0-5 mg/l was supplemented in DGA or EGA media or their variants with 10-30 g/l sucrose and 20-60 g/1 maltose. […] Examples of the effects are shown in Table 10, where 20-30 TISEs were transferred to various media listed below. Except in ¼ strength MS medium, few somatic embryos germinated without GA3. […] Reducing the strength of basal salts was likewise beneficial to germination of somatic embryos.

[6] = Full strength MS salt and B5 vitamins, GA3 2 mg/L
[7] = Full strength MS salt and B5 vitamins, GA3 3 mg/L
[8] = ¼ Strength MS salt and B5 vitamins, GA3 2 mg/L
[9] = ¼ Strength MS salt and B5 vitamins, GA3 3 mg/L
[10] = ½ Strength MS salt and B5 vitamins, GA3 2 mg/L
[11] = ½ Strength MS salt and B5 vitamins, GA3 3 mg/L

C=C1C[C@]23C[C@@]1(O)CC[C@H]2[C@@]12C=C[C@H](O)[C@@](C)(C(=O)O1)[C@H]2[C@@H]3C(=O)O [GA3, gibberellic acid]
Hypocotyl Extension % [1, 6]: 30%
Root Growth % [1, 6]: 53%
Viable Germination SE % [1, 6]: 30%
Hypocotyl Extension SE Count [1, 6]: 16
Root Growth SE Count [1, 6]: 16
Viable Germination SE Count [1, 6]: 9
Hypocotyl Extension % [1, 7]: 44%
Root Growth % [1, 7]: 37%
Viable Germination SE % [1, 7]: 5%
Hypocotyl Extension SE Count [1, 7]: 16
Root Growth SE Count [1, 7]: 11
Viable Germination SE Count [1, 7]: 2
germination of somatic embryos ([1]; many media tested): significantly improved germination in many media tested
Hypocotyl Extension % [1, 8]: 32%
Root Growth % [1, 8]: 43%
Viable Germination SE % [1, 8]: 19%
Hypocotyl Extension SE Count [1, 8]: 14
Root Growth SE Count [1, 8]: 13
Viable Germination SE Count [1, 8]: 6
Hypocotyl Extension % [1, 9]: 26%
Root Growth % [1, 9]: 47%
Viable Germination SE % [1, 9]: 8%
Hypocotyl Extension SE Count [1, 9]: 12
Root Growth SE Count [1, 9]: 14
Viable Germination SE Count [1, 9]: 2
Hypocotyl Extension % [1, 10]: 34%
Root Growth % [1, 10]: 27%
Viable Germination SE % [1, 10]: 21%
Hypocotyl Extension SE Count [1, 10]: 9
Root Growth SE Count [1, 10]: 8
Viable Germination SE Count [1, 10]: 7
Hypocotyl Extension % [1, 11]: 26%
Root Growth % [1, 11]: 53%
Viable Germination SE % [1, 11]: 23%
Hypocotyl Extension SE Count [1, 11]: 14
Root Growth SE Count [1, 11]: 16
Viable Germination SE Count [1, 11]: 6

O=[N+]([O-])[O-].[K+] [KNO3]
maintenance of liquid suspension culture [2]: facilitated maintaining the liquid suspension culture at early stages of embryogenesis
embryo differentiation and maturation ([3]; increase in KNO3 in modified DGA solid medium): favored embryo differentiation but inhibited maturation

c1coc(CNc2ncnc3[nH]cnc23)c1 [Kinetin, kinetin]
TIISE (%) >5 SE ([4]; Kinetin 0.05 mg/l): 15%
TIISE (%) >10 SE ([4]; Kinetin 0.05 mg/l): 0%
TIISE (%) Total ([4]; Kinetin 0.05 mg/l): 25%
TISE (%) ([4]; Kinetin 0.05 mg/l): 35%
TIISE (%) >5 SE ([4]; Kinetin 0.1 mg/l): 15%
TIISE (%) >10 SE ([4]; Kinetin 0.1 mg/l): 5%
TIISE (%) Total ([4]; Kinetin 0.1 mg/l): 30%
TISE (%) ([4]; Kinetin 0.1 mg/l): 35%
TIISE (%) >5 SE ([4]; Kinetin 0.2 mg/l): 15%
TIISE (%) >10 SE ([4]; Kinetin 0.2 mg/l): 0%
TIISE (%) Total ([4]; Kinetin 0.2 mg/l): 30%
TISE (%) ([4]; Kinetin 0.2 mg/l): 40%
TIISE (%) >5 SE ([4]; Kinetin 0.5 mg/l): 10%
TIISE (%) >10 SE ([4]; Kinetin 0.5 mg/l): 5%
TIISE (%) Total ([4]; Kinetin 0.5 mg/l): 20%
TISE (%) ([4]; Kinetin 0.5 mg/l): 25%
TIISE (%) >5 SE ([4]; Kinetin 1 mg/l): 0%
TIISE (%) >10 SE ([4]; Kinetin 1 mg/l): 0%
TIISE (%) Total ([4]; Kinetin 1 mg/l): 15%
TISE (%) ([4]; Kinetin 1 mg/l): 45%
TIISEs formation ([4]; kinetin 0-1 mg/l): appeared to negatively affect TIISEs formation
induction of TISEs ([4]; kinetin 0-1 mg/l): played little role in induction of TISEs

CC1=CC(=O)CC(C)(C)[C@@]1(O)/C=C/C(C)=C\C(=O)O [abscisic acid]
plantlet abnormality [5]: plantlet abnormality was apparently increased
improvement of germination ([5]; germination in MS medium): Improvement of germination in MS medium was not observed

NC(=O)C[C@H](N)C(=O)O [asparagine]
production of secondary somatic embryos and embryogenic calli [3]: greatly improved production of secondary somatic embryos and embryogenenic calli

NC(=O)CC[C@H](N)C(=O)O [glutamine]
production of secondary somatic embryos and embryogenic calli [3]: greatly improved production of secondary somatic embryos and embryogenenic calli
